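Five concentrations, 48 hours, 96-well plates. GI50 is the concentration that inhibits growth by half.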 The source made the active and inactive calls. No stated cut-off is given here; in the data, active = GI50 up to about 1.1 µM and inactive = higher.
Experiments:
Experiment in all cases: growth of human tumour cells (NCI), 48 h
[1] = test system: EKVX
[2] = test system: SK-MEL-5
[3] = test system: Hs-578T
[4] = test system: OVCAR-5
[5] = test system: SR
[6] = test system: A498
[7] = test system: HT-29
[8] = test system: NCI-H23
[9] = test system: SNB-19
[10] = test system: LOX IMVI
[11] = test system: SF-295
[12] = test system: UACC-62
[13] = test system: RPMI-8226
[14] = test system: ACHN
[15] = test system: MCF7
[16] = test system: UACC-257
[17] = test system: Malme-3M
[18] = test system: BT-549
[19] = test system: OVCAR-8
[20] = test system: NCI-H522

| SMILES | GI50 [1] | GI50 [2] | GI50 [3] | GI50 [4] | GI50 [5] | GI50 [6] | GI50 [7] | GI50 [8] | GI50 [9] | GI50 [10] | GI50 [11] | GI50 [12] | GI50 [13] | GI50 [14] | GI50 [15] | GI50 [16] | GI50 [17] | GI50 [18] | GI50 [19] | GI50 [20] |
| --- | --- | --- | --- | --- | --- | --- | --- | --- | --- | --- | --- | --- | --- | --- | --- | --- | --- | --- | --- | --- |
| CCOC(=O)NC | > 100 µM (inactive) | > 100 µM (inactive) | > 100 µM (inactive) | > 100 µM (inactive) | > 100 µM (inactive) | > 100 µM (inactive) | > 100 µM (inactive) | > 100 µM (inactive) | > 100 µM (inactive) | > 100 µM (inactive) | > 100 µM (inactive) | > 100 µM (inactive) | > 100 µM (inactive) | > 100 µM (inactive) | > 100 µM (inactive) | > 100 µM (inactive) | > 100 µM (inactive) | > 100 µM (inactive) |  |  |
| CC(=O)OC1(C)C(=O)OC/C2=C/CN(C)CCC(OC(=O)C(O)(C(C)Cl)CC1C)C2=O.c1ccccc1 (configuration not stated) | > 100 µM (inactive) | > 100 µM (inactive) | > 100 µM (inactive) | > 100 µM (inactive) | > 100 µM (inactive) | > 100 µM (inactive) | > 100 µM (inactive) | > 100 µM (inactive) | > 100 µM (inactive) | > 100 µM (inactive) | > 100 µM (inactive) | > 100 µM (inactive) | > 100 µM (inactive) | > 100 µM (inactive) | > 100 µM (inactive) | > 100 µM (inactive) |  | > 100 µM (inactive) | > 100 µM (inactive) | > 100 µM (inactive) |
| COCCN(C(C)=O)C1CCC2(SCCS2)c2[nH]c3ccccc3c21 (configuration not stated) | > 100 µM (inactive) | > 100 µM (inactive) | > 100 µM (inactive) | > 100 µM (inactive) | 42.5 µM (inactive) | > 100 µM (inactive) | > 100 µM (inactive) | > 100 µM (inactive) | > 100 µM (inactive) | > 100 µM (inactive) | > 100 µM (inactive) |  | 35.5 µM (inactive) | > 100 µM (inactive) | > 100 µM (inactive) | > 100 µM (inactive) | > 100 µM (inactive) | > 100 µM (inactive) | > 100 µM (inactive) | > 100 µM (inactive) |
| CC1=C/C(=N\O)C(C(O)(C(F)(F)F)C(F)(F)F)C(C)(C)C1 (configuration not stated) | > 10 µM (inactive) | > 10 µM (inactive) | > 10 µM (inactive) | > 10 µM (inactive) | > 10 µM (inactive) | > 10 µM (inactive) | > 10 µM (inactive) | > 10 µM (inactive) | > 10 µM (inactive) | > 10 µM (inactive) | > 10 µM (inactive) | > 10 µM (inactive) |  | > 10 µM (inactive) | > 10 µM (inactive) | > 10 µM (inactive) | > 10 µM (inactive) | > 10 µM (inactive) | > 10 µM (inactive) | > 10 µM (inactive) |
| CN(C)Cc1cc(C(C)(C)C)cc(CNC2CCCCC2)c1O | 15.8 µM (inactive) | 15.5 µM (inactive) | 61.2 µM (inactive) | 19.2 µM (inactive) | 19.7 µM (inactive) | 27.9 µM (inactive) | 17.5 µM (inactive) | 69.7 µM (inactive) | > 100 µM (inactive) | 22.1 µM (inactive) | 23 µM (inactive) | 51.9 µM (inactive) | 16.7 µM (inactive) | 42.9 µM (inactive) | 29.4 µM (inactive) | 26.2 µM (inactive) | 25.6 µM (inactive) | 76.7 µM (inactive) |  | 24.2 µM (inactive) |
| Cc1cn(CCCCCCOC(=O)NC(CCCNC(=N)N)C(=O)O)c(=O)[nH]c1=O (configuration not stated) | > 100 µM (inactive) |  | > 100 µM (inactive) | > 100 µM (inactive) | > 100 µM (inactive) | > 100 µM (inactive) | > 100 µM (inactive) | > 100 µM (inactive) | > 100 µM (inactive) | > 100 µM (inactive) | > 100 µM (inactive) | > 100 µM (inactive) | > 100 µM (inactive) | > 100 µM (inactive) | > 100 µM (inactive) | > 100 µM (inactive) |  | > 100 µM (inactive) | > 100 µM (inactive) |  |
| C#CCOC(=O)C(N)CSSCC(N)C(=O)O (configuration not stated) | > 100 µM (inactive) | > 100 µM (inactive) | > 100 µM (inactive) | > 100 µM (inactive) | > 100 µM (inactive) | > 100 µM (inactive) |  | > 100 µM (inactive) | > 100 µM (inactive) | 65.9 µM (inactive) |  | > 100 µM (inactive) | > 100 µM (inactive) | > 100 µM (inactive) | > 100 µM (inactive) | > 100 µM (inactive) | > 100 µM (inactive) | > 100 µM (inactive) | > 100 µM (inactive) | > 100 µM (inactive) |
| CN(C)CCNc1ccc(NCCN(C)C)c2c1C(=O)c1ncsc1C2=O | 12.3 µM (inactive) | 15.8 µM (inactive) | 17.7 µM (inactive) | 21.8 µM (inactive) | 1.21 µM (inactive) | 14.1 µM (inactive) | 6.46 µM (inactive) | 15.2 µM (inactive) | 18.6 µM (inactive) | 8.53 µM (inactive) | 12.8 µM (inactive) | 11.4 µM (inactive) | 10.6 µM (inactive) | 8.2 µM (inactive) | 7.33 µM (inactive) | 18.5 µM (inactive) |  | 18.1 µM (inactive) | 12.5 µM (inactive) | 11.6 µM (inactive) |
| Nc1c(Cl)ncnc1N[C@@H]1C[C@H]1CO | > 100 µM (inactive) | > 100 µM (inactive) | > 100 µM (inactive) | > 100 µM (inactive) | > 100 µM (inactive) | > 100 µM (inactive) | > 100 µM (inactive) | > 100 µM (inactive) | > 100 µM (inactive) | > 100 µM (inactive) | > 100 µM (inactive) | > 100 µM (inactive) |  | > 100 µM (inactive) | > 100 µM (inactive) | > 100 µM (inactive) |  | > 100 µM (inactive) | > 100 µM (inactive) | > 100 µM (inactive) |
| COC1=C2CC(C)CC(OC)C(OC(=O)CCCN)C(C)/C=C(\C)C(OC(N)=O)C(OC)/C=C\C=C(/C)C(=O)NC(=CC1=O)C2=O (configuration not stated) | 13.2 µM (inactive) | 9.14 µM (inactive) | 11.6 µM (inactive) | 10.2 µM (inactive) | 3.02 µM (inactive) | 16.4 µM (inactive) | 2.43 µM (inactive) | 3.65 µM (inactive) | 15.4 µM (inactive) | 2.64 µM (inactive) | 16.9 µM (inactive) | 6 µM (inactive) | 2.29 µM (inactive) | 5.4 µM (inactive) | 0.865 µM (active) | 5.64 µM (inactive) | 2.29 µM (inactive) | 4.29 µM (inactive) | 6.97 µM (inactive) | 0.431 µM (active) |
| Nc1ncnc2c1ncn2C1OC(COC2C(CO)OC(OC(C(=O)O)C(O)C(OP(=O)(O)O)C(O)C(=O)O)C(O)C2O)C(O)C1O (configuration not stated) | > 100 µM (inactive) | > 100 µM (inactive) | 14.9 µM (inactive) | > 100 µM (inactive) | 15.7 µM (inactive) | > 100 µM (inactive) | > 100 µM (inactive) | > 100 µM (inactive) | > 100 µM (inactive) | > 100 µM (inactive) | > 100 µM (inactive) |  | > 100 µM (inactive) | 37.7 µM (inactive) | > 100 µM (inactive) | > 100 µM (inactive) | 45.7 µM (inactive) | > 100 µM (inactive) | > 100 µM (inactive) | 59.3 µM (inactive) |
| O=c1c2cc(Cl)cc(Cl)c2oc2nc3n(c(=O)c12)CCCS3 | > 100 µM (inactive) | > 100 µM (inactive) | > 100 µM (inactive) | > 100 µM (inactive) | > 100 µM (inactive) | > 100 µM (inactive) |  | > 100 µM (inactive) | > 100 µM (inactive) |  | > 100 µM (inactive) | > 100 µM (inactive) | > 100 µM (inactive) | > 100 µM (inactive) | 70.5 µM (inactive) | > 100 µM (inactive) | > 100 µM (inactive) | 47.6 µM (inactive) |  | 16.7 µM (inactive) |
| COc1ccc(OC)c(C2CCc3c(cnc4nc(N)nc(N)c34)C2)c1 (configuration not stated) | 1.58 µM (inactive) | 11 µM (inactive) | 15.7 µM (inactive) | 4.7 µM (inactive) | 3.86 µM (inactive) | 12.3 µM (inactive) | 2 µM (inactive) |  | 6.92 µM (inactive) | 1.32 µM (inactive) | 7.23 µM (inactive) | 0.673 µM (active) |  | 3.91 µM (inactive) | 10.1 µM (inactive) | 4.28 µM (inactive) | 4.83 µM (inactive) | 14.3 µM (inactive) | 5.36 µM (inactive) | 6.24 µM (inactive) |
| CN(C)CCNC(=O)c1ccc(NC(=O)c2nc([N+](=O)[O-])cn2C)cc1 |  | > 100 µM (inactive) | > 100 µM (inactive) | > 100 µM (inactive) | > 100 µM (inactive) | > 100 µM (inactive) | > 100 µM (inactive) | > 100 µM (inactive) |  | > 100 µM (inactive) | > 100 µM (inactive) | > 100 µM (inactive) | > 100 µM (inactive) | > 100 µM (inactive) | > 100 µM (inactive) | > 100 µM (inactive) | > 100 µM (inactive) | > 100 µM (inactive) | > 100 µM (inactive) | > 100 µM (inactive) |
| Cc1cc(S(=O)(=O)Nc2nc3ccccc3nc2-c2ccc(Cl)cc2)c(S)cc1Cl | 15.7 µM (inactive) | 14 µM (inactive) | 27 µM (inactive) | 19.6 µM (inactive) | 17.3 µM (inactive) | 16.3 µM (inactive) | 17.5 µM (inactive) | 18.5 µM (inactive) | 19 µM (inactive) |  | 18.9 µM (inactive) | 12.2 µM (inactive) | 23.1 µM (inactive) | 16.7 µM (inactive) | 17 µM (inactive) | 21.7 µM (inactive) | 22.7 µM (inactive) | 23.8 µM (inactive) | 23.2 µM (inactive) | 13.6 µM (inactive) |
